How the values were obtained:
Type in all cases: ADME, organism-based
[1] = Cmax in plasma of male C57BL6 mouse at 3 mg/kg, po
[2] = Half life in plasma of male C57BL6 mouse at 3 mg/kg, po
[3] = AUClast in plasma of male C57BL6 mouse at 3 mg/kg, po
[4] = AUC (infinity) in plasma of male C57BL6 mouse at 3 mg/kg, po
[5] = Tmax in brain of male C57BL6 mouse at 3 mg/kg, po
[6] = Cmax in brain of male C57BL6 mouse at 3 mg/kg, po
[7] = Half life in brain of male C57BL6 mouse at 3 mg/kg, po
[8] = AUClast in brain of male C57BL6 mouse at 3 mg/kg, po
[9] = AUC (infinity) in brain of male C57BL6 mouse at 3 mg/kg, po
[10] = Tmax in plasma of male C57BL6 mouse at 3 mg/kg, po

Structure (SMILES)	Cmax [1] [ng/mL]	half-life [2] [h]	AUC(0-t) [3] [ng·h/mL]	AUC(0-inf) [4] [ng·h/mL]	Tmax [5] [h]	Cmax [6] [ng/mL]	half-life [7] [h]	AUC(0-t) [8] [ng·h/mL]	AUC(0-inf) [9] [ng·h/mL]	Tmax [10] [h]
CN(C)CCc1c[nH]c2cccc(O)c12 [PSILOCIN]	878	1.7	1060	1140	0.5	1340	4.47	3600	4420	–
CCCOc1cc(CCN)c(OC)cc1Br	130	1.44	284	291	1	1850	1.29	6480	6680	0.5
